Assay results: patent US20200085979A1, “PRECISION MEDICINE THERANOSTICS AND DIAGNOSTICS A COMBINATION THEREOF” (priority 2018, published 2020)

Columns and labels:
αvβ3 and αvβ5 integrin = assay: comparison of the αvβ3 and αvβ5 integrin antagonist peptidomimetic with an αvβ3 integrin peptide in nude mice, same chelator and radionuclide; type: in vivo; conditions: versus αvβ3 integrin peptide
Text: Embodiments of the present invention also utilize the therapeutic compounds of the invention in conjunction with a diagnostic. Compounds containing αvβ3/αvβ5 anti-integrin antagonist peptidomimetic, displaying a selective affinity for the HER2+ protein, vitronectin, fibronectin, tenascin, reelin, kindlin, talin or combination thereof for the diagnosis or prognosis of disorders using PET, SPECT and MRI or combinations by administering an effective amount of activity thereof to a subject, particularly for the diagnosis of diseases related to metastasis and angiogenesis such as breast cancer, lung cancer, ovarian cancer, gastric cancer, esophageal cancer, blood borne cancers, musculoskeletal tumors, melanoma, head and neck cancer, human glioma, cervical cancer, vascular restenosis, osteoporosis, rheumatoid arthritis. […] The compounds referred to may be radiotracers for nuclear medicine, such as the Gallium-68 or Fluorine-18, […], Copper-64, or Technetium-99m, covalently bound to a spacer, chelator, directly to the peptidomimetic, to a nanoparticle or to more than one amino acid unit of the peptidomimetic. Other radiotracers are those reported in the publication Radionuclide Peptide Cancer Therapy, edited by M. Chinol and G. Paganelli, Taylor and Francis CRC Press, 2006. […]

HER2+ breast cancer = assay: human PET study versus [18F] Fludeoxyglucose PET scan in an HER2+ breast cancer patient; type: in vivo

## 4-[2-(3,4,5,6-tetrahydropyrimidine-2-ylamino)ethyloxy]benzoyl-2-[N-(3-aminoneopenta-1-carbamyl)]-aminoethylsulfonyl-amino-β-alanine [integrin antagonist peptidomimetic]
αvβ3 and αvβ5 integrin
  affinity for the targeted organs relative to the comparator αvβ3 integrin peptide: three to seven times better
HER2+ breast cancer
  tumors distant from the primary detected: 25 tumors
